Laboratory results taken from patent US20200165572A1, “ENGINEERED SUBSTRATES FOR HIGH-THROUGHPUT GENERATION OF 3D MODELS OF TUMOR DORMANCY, RELAPSE AND MICROMETASTASES FOR PHENOTYPE SPECIFIC DRUG DISCOVERY AND DEVELOPMENT” (Arizona Board of Regents on behalf of Arizona State …, priority 2015, published 2020).
Entries after “also recorded” stand apart in the source; their conditions may differ. Read-outs that look alike come from different tables or passages of the source. Peptide text beside a SMILES is read from it. * marks the point of attachment. Cbz = O=C(OCc1ccccc1)*; CH2F = FC*

Experiments:
dormant T24 3DTMs [1] = settings: for effect of pan-caspase inhibition on thapsigargin-bortezomib induced cell death: dormant T24 spheroids
Method: (§1) Different concentrations (12.5, 25, 50 and 100 μM) of the anticancer drugs docetaxel, (10-40 μM) mitoxantrone, or (250-500 μM) thioTEPA were added to 3DTMs formed after 5-7 days of initial cell seeding on Amikagel. Drugs were added to 3DTMs of T24 cells co-cultured with NIH3T3 murine fibroblasts on day 5, but added to 3DTMs of T24 cells alone on day 7 due to the different times required for their formation After 96 hours of drug exposure, 3DTMs were disassembled using 50 μl of 5 mg/ml collagenase for 20 minutes to allow disassembly for co-culture spheroids, and cell viability was assessed by Live/Dead® staining followed by flow cytometry. 3DTM viability was also measured using MTT/XTT assay as described previously [28]. […] A calcium concentration of 5 mM was used with calcimycin ionophore of different concentrations (0.1, 0.5, 1, 5 and 10 μM) were used to induce cell death. Calcium liposomes were also added at a concentration of 175 μM to the dormant cells.
(§2) Viability of 3DTMs was also determined using the Live-Dead® (Calcein AM-Ethidium homodimer) staining assay. Fresh serum free DMEM media, containing a final concentration of 1 μM of calcein AM and 2 μM of ethidium homodimer-1 (EthD-1), was added to the 3DTMs, and fluorescence imaging was carried out using a Zeiss fluorescence microscope after incubating the reagents for 20 minutes. Green fluorescence emission of calcein-AM inside the live cells was detected using 38 HE filter set (Excitation: 470/40; Emission: 525/50) and red fluorescence of nucleic acid bound-EthD-1 was detected using a 43 HE filter set (Excitation: 550/25; Emission: 605/70). The extent of red and green fluorescence were indicative of the extent of viable and dead cells, respectively, in the 3DTM.
(§3) To quantify the percent dead cells using flow cytometer following drug treatment, 3DTMs were disassembled using collagenase as described previously (whenever necessary). Disassembled cells were suspended in 1×PBS containing a final concentration of 1 μM of Calcein AM and 2 μM of Ethidium Homodimer-1 (EthD-1). After incubating for 20 minutes, fluorescence images were collected as described in previous sections. Cell viability was further quantified using flow cytometry on the same sample using BD FACSAria™ III. Red fluorescence of EthD-1 was detected using a 43 HE filter set (Excitation: 550/25; Emission: 605/70).

dormant 3DTMs = assay: Intracellular calcium imaging; assay type: cell-based, human; settings: 3-hour treatment
Method: Dormant 3DTMs grown on AM3 Amikagels were treated with calcimycin (0.5 and 5 μM) with calcium (5 mM) and calcium liposomes (175 μM) for 3 hours (3 dormant 3DTMs each). Following 3 hours, the 3DTMs were disassembled using rapid pipetting and cells were collected by centrifugation. The cells were washed with 1×PBS and resuspended in 50 μL cell culture media+50 μL Fluo-4 dye solution (prepared as per vendor's recommendation). After incubation for 60 minutes, the cells were imaged at excitation: 494 nm, emission: 516 nm. Green color fluorescence was used as an indicator of intracellular calcium concentration. Intracellular calcium fluorescence was quantified using imageJ.

dormant T24 3DTMs [2] = assay: cells; settings: Homo sapiens, 24 h, read-out: LC50
Method: as §1, §2, §3

CHOP = CHOP expression by western blotting; assay type: cell-based, human; settings: calcimycin 0.5-μM
Method: […] The lysates were then sonicated thrice for 10-15 seconds on ice and collected by centrifugation (16,000 rpm, 20 minutes, 4° C.). Supernatants containing the whole cell protein were stored at −20° C. for subsequent use.
BCA assay was used to quantify the total protein content of the cell lysates. Equivalent quantities of whole cell proteins (4 μg) were combined with 2× Laemmli buffer containing 5% β-mercaptoethanol, and were heat denatured for 5 minutes at 95° C. Equal amounts of protein (4 μg) were then loaded into to the wells of pre-cast gels and run for 35 minutes at 200 V in running buffer (25 mM Tris, […], and 0.1% SDS, pH=8.3). The proteins were transferred to a methanol-activated Hybond PVDF membrane for 30 minutes at 20 V in the transfer buffer (25 mM Tris, 190 mM glycine, and 20% methanol, pH=8.3). The Hybond PVDF membrane was rinsed with 1×PBST and blocked with 3% blocking buffer 3× for 5 minutes each. The membrane was then incubated with the primary antibody for 12 hours at 4° C. (1:1000 CHOP D46F1 Rabbit mAb primary antibody) and (1:5000 f-actin Rabbit Ab primary antibody). […]
Area of the proteins actin and CHOP on the […] membranes were measured using image-J software. The CHOP proteins from treatment samples were then normalized to their actin content and expressed which was further expressed as a percentage of the live control.

dormant T24 3DTMs [3] = assay: Escape from dormancy after transfer of T24 3DTMs from AM3 to AM1 Amikagel; assay type: cell-based, human; settings: for microcolony formation: 100 μM pre-treatment, 15 days after transfer to AM1
Method: T24 3DTMs were first formed on AM3 Amikagels, and transferred to AM1 Amikagels on the seventh day following initial cell seeding, in order to investigate the role of chemo-mechanical properties of Amikagels on 3DTM fate, dormancy and escape from dormancy. Upon transfer, 3DTMs were monitored for cell spreading and motility on the gel for an additional 7 days. After 7 days, cell cycle analysis was carried out on the all 3DTMs as described in the previous sections.
Long-term experiments were also carried out where 3DTMs were continuously monitored for 15 days after their tranfer from AM3 gel to AM1 gel. In order to study the effect of drug treatment, T24 3DTMs were first treated with 0-100 μM docetaxel for 96 hours after 7 days of initial seeding of cells on AM3 gel. After 96 hours of this drug treatment, the 3DTMs were transferred to AM1 gel to study how different chemo-mechanical properties influenced escape from dormancy. Similar studies were also performed using ROCK inhibitor Y-27632 (20 μM).

T24 cells in 2D culture [4] = assay: cells; assay type: cell-based; settings: Homo sapiens, T-24, 96 h, read-out: LC50
Method: Cell death (%) after exposure of 5000 T24 cells to docetaxel for 96 hours after 2D cell culture measured by using MTT assay (circles).

T24 bladder cancer cells = assay: Cell cycle analysis of T24 3DTMs; assay type: cell-based, human
Method: Following five days of incubation on AM3 Amikagels, 3DTMs of T24 cells with NIH3T3 murine fibroblast cells were harvested for cell cycle analysis. Four or five individual 3DTMs of T24 cells alone or UMUC3 cells alone were harvested on the 7th day after seeding on Amikagels, collected in an eppendorf tube. 50 μl of 5 mg/ml collagenase was added to 3DTMs prepared using fibroblast helper cells for 30 minutes at 37° C. in order to facilitate their disassembly by gentle pipetteing. Single cell 3DTMs were disassembled using manual pipetting. Disassembled 3DTM cells were then centrifuged at 200 r.c.f. in order to collect the cell pellet. The pellet was resuspended in a solution of 1% v/v 1× Triton-X, 5% (v/v) fetal bovine serum (FBS), 50 μg/mL propidium iodide, and 0.006-0.01 units/mL ribonuclease A. After incubation for 30 minutes on ice, cells were analyzed for their cell cycle profiles using flow cytometry; the propidum iodide (PI) signal was detected using an excitation at 535 nm and emission at 617 nm. Voltages of the FL2-A, SSC and FSC channels were adjusted in order to obtain best representative peaks for alignment of 2n (diploidy—G0/G1) peak to 200 intensity units during flow cytometry. FL2A (FL2-Area) provides the information regarding the pulse area of the emitted fluorescence signal (total cell fluorescence) whereas […] light from the sample. FSC is a measure of diffracted light from the sample proportional to cell surface area or size and SSC is proportional to cell granularity or internal complexity.

NIH3T3-T24 3DTMs = assay: Drug efficacy on NIH3T3-T24 3DTM viability; assay type: cell-based, human, murine
Method: After three important tumor phenotypes were captured on Amikagels, we used Amikagel-3DTM platform for high throughput drug screens against those specific phenotypes. T24 (alone), and NIH3T3-T24 3DTMs were exposed to different doses of the DNA-damaging drug, mitoxantrone (31) or the microtubule-stabilizing drug, docetaxel for 96 hours (32). Co-culture 3DTMs were treated with collagenase to allow their disassembly before cell-viability measurement. It was noticed that collagenase treatment enabled very easy diassembly of the co-culture 3DTMs, supporting our previous finding of ECM production.

T24 cells in 2D culture [5] = settings: cited from earlier work

COC(=O)C[C@H](NC(=O)[C@H](C)NC(=O)[C@@H](NC(=O)OCc1ccccc1)C(C)C)C(=O)CF [zVAD-fmk] (Cbz-Val-Ala-Asp(OMe)-CH2F)
effect of pan-caspase inhibition on calcimycin-induced death (dormant T24 3DTMs [1]; 24-hour, 10-μM or 5-μM calcimycin, 5 mM calcium, 5-μM zVAD-fmk): did not rescue | effect of pan-caspase inhibition on thapsigargin-bortezomib induced cell death (dormant T24 3DTMs [1]; 96 hours): reversed | effect of pan-caspase inhibition on thapsigargin-bortezomib induced cell death (dormant T24 3DTMs [1]; 96 hours, listed as z-VAD-fmk): significantly rescued

[Ca+2].[Cl-].[Cl-] [calcium, calcium chloride]
intracellular calcium fluorescence compared to DMSO control (dormant 3DTMs): significantly higher | impact on dormant cell viability (dormant T24 3DTMs [1]; free calcium in cell culture media 40 mM, 96 hours): minimal impact on dormant cell viability

CNc1ccc2oc(C[C@H]3O[C@@]4(CC[C@H]3C)O[C@H]([C@H](C)C(=O)c3ccc[nH]3)[C@H](C)C[C@H]4C)nc2c1C(=O)O [calcimycin]
CC50 (dormant T24 3DTMs [2]): ~10 µM | intracellular calcium fluorescence compared to DMSO control (dormant 3DTMs): significantly higher | cell death dose response (dormant T24 3DTMs [1]; 24-hour time point): concentration dependent cell death | CHOP protein expression (CHOP): No CHOP protein expression

CC(=O)O[C@@]12CO[C@@H]1C[C@H](O)[C@@]1(C)C(=O)[C@H](O)C3=C(C)[C@@H](OC(=O)[C@H](O)[C@@H](NC(=O)OC(C)(C)C)c4ccccc4)C[C@@](O)([C@@H](OC(=O)c4ccccc4)[C@H]21)C3(C)C [docetaxel]
cell escape from mother 3DTM (dormant T24 3DTMs [3]; 12.5 μM-100 μM for 96 hours on AM3, then transfer to AM1): significantly reduced the number of cells escaping; also recorded: significantly lesser number of cells escaped | microcolony formation (dormant T24 3DTMs [3]): drastically reduced | microcolony formation (dormant T24 3DTMs [3]; listed as Docetaxel): inhibited microcolony formation | CC50 (T24 cells in 2D culture [4]): 10 µM | cell death (dormant T24 3DTMs [1]; 100 μM, 96 hours, compared to live control): ~10% | effect on cell viability of T24 3DTMs (dormant T24 3DTMs [1]; different doses, 96 hours of exposure, listed as Docetaxel): did not have any impact on the cell viability | cells in G2/M phase of treated dormant T24 3DTMs (T24 bladder cancer cells; drug-treated dormant T24 3DTMs): did not change the number of cells in G2/M phase | cells in pre G0/G1 phase of treated dormant T24 3DTMs (T24 bladder cancer cells; drug-treated dormant T24 3DTMs): increase in the number of cells in the pre G0/G1 phase

C[C@@H](N)[C@H]1CC[C@H](C(=O)Nc2ccncc2)CC1 [Amikagel Y-27632, Y-27632]
cell escape from mother spheroid (dormant T24 3DTMs [3]; 20-μM for 96 hours on AM3 gel, then transfer to AM1 gel): increase in the number of cells escape | cell cycle profile of dormant cells on AM3 gels (T24 bladder cancer cells; 20-μM, 96 hours): did not observe any changes in the cell cycle profile

S=P(N1CC1)(N1CC1)N1CC1 [ThioTEPA]
response of NIH3T3-T24 3DTMs (NIH3T3-T24 3DTMs; up to a concentration as high as 500 μM): resistant

C/C=C(/C)C(=O)O[C@H]1C(C)=C2[C@H]([C@@H]1OC(=O)CCCCCCC)[C@@](C)(OC(C)=O)C[C@H](OC(=O)CCC)[C@@]1(O)[C@H]2OC(=O)[C@@]1(C)O [thapsigargin]
cell death (dormant T24 3DTMs [1]; single agent, 15-μM, 96 hour treatment): 50%

O=C1c2c(O)ccc(O)c2C(=O)c2c(NCCNCCO)ccc(NCCNCCO)c21 [mitoxantrone]
response of NIH3T3-T24 3DTMs (NIH3T3-T24 3DTMs; doses as high as 80 μM, 96 hours): resistant | CC50 (T24 cells in 2D culture [5]): ~9 µM
